This assay relates to normal human fibroblasts (NHDF 784). Put plainly: Synthesis of collagen by human fibroblast cultures (radiolabelled proline incorporation). Type of assay: cell-based. The note with it: 72 h incubation, 1/40 dilutions of stock preparations, vitamin C 20 μg/ml, FIG. 4. As to the method: The effect of a composition of the present invention (comprising two anti-glycosylation agents with magnesium ascorbyl phosphate) on the stimulation of the synthesis of collagen and the limitation of the formation of irreversible cross linkages between the collagen fibrils, were evaluated in vitro on human fibroblast cells. […] Glucose was tested in a final concentration of 0.1 percent, which is equivalent to doubling the quantity of 'cold' glucose of the medium. […] They contained free radioactivity and radioactivity incorporated in the soluble cellular and extracellular proteins. […] The proteins of the soluble fraction were then precipitated by 0.3 volume of 10 percent w/v trichloroacetic acid (TCA), and then washed twice with 3 percent TCA (removal of free radioactivity). […] Aliquots were taken to count the incorporated radioactivity in the proteins and a final precipitation was carried out with TCA to separate the material digested by collagenase (collagenic origin) from the collagenase-insensitive material. The incorporated radioactivity was counted by liquid scintillation after cumulation of the soluble/insoluble protein fractions, in an LKB 1211 Rackbeta counter.

SMILES strings stand for the structures.

Turning to `O=C1O[C@H]([C@@H](O)CO)C(O)=C1O` [vitamin C], the “synthesis of collagen (quantity of radiolabelled proline in the neosynthesized collagen)” value is “significantly increased”.
On to `O=C1O[C@H]([C@@H](O)CO)C([O-])=C1OP(=O)([O-])[O-].O=C1O[C@H]([C@@H](O)CO)C([O-])=C1OP(=O)([O-])[O-].[Mg+2].[Mg+2].[Mg+2]` [magnesium ascorbyl phosphate], for which the “synthesis of collagen (quantity of radiolabelled proline in the neosynthesized collagen)” value is reported as “significantly increased”.

For the origin of these results see patent publication US20020025303A1, “COSMETIC AND/OR DERMATOLOGICAL COMPOSITION CONTAINING A DERIVATIVE OF METHYLATED SILANOL AND A DERIVATIVE OF HYDROLYSED PLANT PROTEIN” (priority 1997, published 2002).
